Reference: patent US20200270237A1 (priority 2017, published 2020)

The molecules below were run against Human α2δ-1 Subunit of Cav2.2 Calcium Channel (Homo sapiens, UniProt P54289) (assay: biochemical). Conditions: not given.
Chain of Human α2δ-1 Subunit of Cav2.2 Calcium Channel (P54289 25-1103): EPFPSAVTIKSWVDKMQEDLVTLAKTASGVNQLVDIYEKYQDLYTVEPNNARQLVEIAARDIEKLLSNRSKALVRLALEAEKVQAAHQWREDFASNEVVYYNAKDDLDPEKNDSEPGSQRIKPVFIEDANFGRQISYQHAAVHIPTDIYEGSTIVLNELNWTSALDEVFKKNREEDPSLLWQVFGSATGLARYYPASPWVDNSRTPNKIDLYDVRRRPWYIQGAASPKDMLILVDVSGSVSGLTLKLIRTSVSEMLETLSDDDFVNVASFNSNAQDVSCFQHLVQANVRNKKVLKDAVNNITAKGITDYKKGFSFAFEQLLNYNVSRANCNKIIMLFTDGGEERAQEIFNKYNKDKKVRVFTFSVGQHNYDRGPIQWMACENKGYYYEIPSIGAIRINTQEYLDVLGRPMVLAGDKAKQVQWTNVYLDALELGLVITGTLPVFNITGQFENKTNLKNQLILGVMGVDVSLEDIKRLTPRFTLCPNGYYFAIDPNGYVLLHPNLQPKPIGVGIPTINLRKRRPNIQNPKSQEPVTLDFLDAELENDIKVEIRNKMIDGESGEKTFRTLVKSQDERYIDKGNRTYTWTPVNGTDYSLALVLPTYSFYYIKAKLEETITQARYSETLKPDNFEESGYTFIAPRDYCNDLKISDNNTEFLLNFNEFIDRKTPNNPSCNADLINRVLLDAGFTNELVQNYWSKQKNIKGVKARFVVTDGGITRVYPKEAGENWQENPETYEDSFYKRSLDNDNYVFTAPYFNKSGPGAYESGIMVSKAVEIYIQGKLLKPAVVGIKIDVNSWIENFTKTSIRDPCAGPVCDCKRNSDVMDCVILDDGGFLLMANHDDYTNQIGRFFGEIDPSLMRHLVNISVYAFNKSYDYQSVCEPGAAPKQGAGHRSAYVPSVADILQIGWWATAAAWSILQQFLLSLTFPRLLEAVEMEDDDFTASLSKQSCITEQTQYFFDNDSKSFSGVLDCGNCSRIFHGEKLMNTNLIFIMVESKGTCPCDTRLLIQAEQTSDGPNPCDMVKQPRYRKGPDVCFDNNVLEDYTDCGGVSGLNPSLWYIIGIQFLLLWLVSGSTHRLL
Assay type: binding
Work on `CNCCC(Oc1cccc(CN2CCC(c3ccccc3)(N(C)C)CC2)c1)c1cccs1` (centres unmarked) [Example 2, N,N-dimethyl-1-(3-(3-(methylamino)-1-(thiophen-2-yl)propoxy)benzyl)-4-phenylpiperidin-4-amine] yielded a Ki of 100 to 500 nM.
Molecule `CNCCC(Oc1cccc(CN2CCC(c3cccc(O)c3)CC2)c1)c1cccs1` (centres unmarked) [Example 3, 3-(1-(3-(3-(Methylamino)-1-(thiophen-2-yl)propoxy)benzyl)piperidin-4-yl)phenol] has a Ki of 100 to 500 nM.
`CNCCC(Oc1cccc(CN2CCC(c3cccc(O)c3)(N(C)C)CC2)c1)c1cccs1` (centres unmarked) [Example 5, 3-(4-(Dimethylamino)-1-(3-(3-(methylamino)-1-(thiophen-2-yl)propoxy)benzyl)piperidin-4-yl)phenol] was tested, and the Ki was 100 to 500 nM.
`CNCC[C@H](Oc1cccc(CN2CCC(c3cccc(O)c3)(N(C)C)CC2)c1)c1cccs1` [Example 14, (S)-3-(4-(dimethylamino)-1-(3-(3-(methylamino)-1-(thiophen-2-yl)propoxy)benzyl)piperidin-4-yl)phenol] showed a Ki of 100 to 500 nM.
In the case of `CNCC[C@H](Oc1cccc(CN2CCC(c3ccccc3)(N(C)C)CC2)c1)c1cccs1` [Example 15, (S)-N,N-dimethyl-1-(3-(3-(methylamino)-1-(thiophen-2-yl)propoxy)benzyl)-4-phenylpiperidin-4-amine], the Ki is reported as 500 to 3000 nM.
With `CNCC[C@@H](Oc1cccc(CN2CCC(c3ccccc3)(N(C)C)CC2)c1)c1cccs1` [Example 16, (R)-N,N-dimethyl-1-(3-(3-(methylamino)-1-(thiophen-2-yl)propoxy)benzyl)-4-phenylpiperidin-4-amine] the Ki was 500 to 3000 nM.

Same assay, conditions: Table 1; human α2δ-1 enriched membranes, 15 nM [3H]-Gabapentin; read-out: Ki (nM) alpha2delta Hum
Work on `CNCCC(Oc1cccc(C(=O)N2CCC(c3ccccc3)(N(C)C)CC2)c1)c1cccs1` (centres unmarked) [Example 7, (4-(Dimethylamino)-4-phenylpiperidin-1-yl)(3-(3-(methylamino)-1-(thiophen-2-yl)propoxy)phenyl)methanone] yielded a Ki of 500 to 3000 nM.

Same assay, conditions: Table 2 (dual compounds); human α2δ-1 enriched membranes, 15 nM [3H]-Gabapentin; read-out: Ki (nM) alpha2delta Hum
`CNCCC(Oc1cccc(C(=O)N2CCC(c3ccccc3)(N(C)C)CC2)c1)c1cccs1` (centres unmarked) [Example 7, (4-(Dimethylamino)-4-phenylpiperidin-1-yl)(3-(3-(methylamino)-1-(thiophen-2-yl)propoxy)phenyl)methanone] gave a Ki of 500 to 3000 nM.

Same assay, conditions: read-out: Ki (nM) alpha2delta Hum
In the case of `CNCCC(Oc1cccc(CN2C[C@@H](C)N[C@@H](C)C2)c1)c1cccs1` (some centres unmarked) [Example 1, 3-(3-((3,5-Dimethylpiperazin-1-yl)methyl)phenoxy)-N-methyl-3-(thiophen-2-yl)propan-1-amine], the Ki is reported as 500 to 3000 nM.
`CNCCC(Oc1cccc(CN2CCNCC2)c1)c1cccs1` (centres unmarked) [Example 6, N-methyl-3-(3-(piperazin-1-ylmethyl)phenoxy)-3-(thiophen-2-yl)propan-1-amine] gave a Ki of 500 to 3000 nM.
In the case of `CNCCC(Oc1cccc(C(=O)N2CCCCC2)c1)c1ccccc1` (centres unmarked) [Example 8, (3-(3-(Methylamino)-1-phenylpropoxy)phenyl)(piperidin-1-yl)methanone], the Ki is reported as > 3000 nM.
`CNCCC(Oc1cccc(C(=O)N2CCN(C)CC2)c1)c1ccccc1` (centres unmarked) [Example 9, (3-(3-(Methylamino)-1-phenylpropoxy)phenyl)(4-methylpiperazin-1-yl)methanone] was tested, and the Ki was > 3000 nM.
For `CNCCC(Oc1cccc(C(=O)N2CCOCC2)c1)c1ccccc1` (centres unmarked) [Example 10, (3-(3-(Methylamino)-1-phenylpropoxy)phenyl)(morpholino)methanone], the Ki was > 3000 nM.
In the case of `CNCCC(Oc1cccc(C(=O)N2CCN(C)CC2)c1)c1cccs1` (centres unmarked) [Example 11, (3-(3-(Methylamino)-1-(thiophen-2-yl)propoxy)phenyl)(4-methylpiperazin-1-yl)methanone], the Ki is reported as > 3000 nM.
In the case of `CC[C@]1(N2CCN(CCc3cccc(O[C@H](CCNC)c4ccccc4)c3)CC2)CCOC(C)(C)C1` [Example 12a, (R)-3-(3-(2-(4 ((S)-4-ethyl-2,2-dimethyltetrahydro-2H-pyran-4-yl)piperazin-1-yl)ethyl)phenoxy)-N-methyl-3-phenylpropan-1-amine], the Ki is reported as 500 to 3000 nM.
Molecule `CC[C@@]1(N2CCN(CCc3cccc(O[C@H](CCNC)c4ccccc4)c3)CC2)CCOC(C)(C)C1` [Example 12b, (R)-3-(3-(2-(4-((R)-4-ethyl-2,2-dimethyltetrahydro-2H-pyran-4-yl)piperazin-1-yl)ethyl)phenoxy)-N-methyl-3-phenylpropan-1-amine] has a Ki of 500 to 3000 nM.
`CNCCC(Oc1cccc(-n2nc(C)cc2C)c1)c1ccccc1` (centres unmarked) [Example 13] was tested, and the Ki was > 3000 nM.
